Measurements: patent US10645928B2, “Pesticidally active polycyclic derivatives with sulfur containing substituents” (Syngenta Participations AG, priority 2014, dated 2020)

Assays:
[1] = system: Euschistus heros (Neotropical Brown Stink Bug); assay: Example B6: Euschistus heros, sprayed soybean leaves, mortality and growth inhibition; type: in vivo; conditions: 120 h, application rate of 200 ppm, N2 nymphs, 5 days after infestation, read-out: effect in at least one of the two categories (mortality or growth inhibition)
Method: (§1) Soybean leaves on agar in 24-well microtiter plates were sprayed with aqueous test solutions prepared from 10,000 ppm DMSO stock solutions. After drying the leaves were infested with N2 nymphs. The samples were assessed for mortality and growth inhibition in comparison to untreated samples 5 days after infestation.

[2] = system: Plutella xylostella (Diamond Back Moth); assay: Example B10: Plutella xylostella, treated artificial diet, growth inhibition; type: in vivo; conditions: 120 h, application rate of 200 ppm, L2 larvae, 5 days after infestation
Method: (§2) 24-well microtiter plates with artificial diet were treated with aqueous test solutions prepared from 10,000 ppm DMSO stock solutions by pipetting. After drying, the plates were infested with L2 larvae (10 to 15 per well). The samples were assessed for growth inhibition in comparison to untreated samples 5 days after infestation. Control of Plutella xylostella by a test sample is given when the growth inhibition is higher than the untreated sample.

[3] = system: Diabrotica balteata (Corn Root Worm); assay: Example B3: Diabrotica balteata, sprayed maize sprouts, mortality; type: in vivo; conditions: 96 h, application rate of 200 ppm, L2 larvae, 4 days after infestation
Method: (§3) Maize sprouts placed onto an agar layer in 24-well microtiter plates were treated with aqueous test solutions prepared from 10,000 ppm DMSO stock solutions by spraying. After drying, the plates were infested with L2 larvae (6 to 10 per well). The samples were assessed for mortality 4 days after infestation.

[4] = system: Myzus persicae (Green Peach Aphid); assay: Example B9: Myzus persicae, roots of pea seedlings in test solution, mortality; type: in vivo; conditions: 144 h, test rate of 24 ppm, 6 days
Method: Roots of pea seedlings infested with an aphid population of mixed ages were placed directly into aqueous test solutions prepared from 10,000 DMSO stock solutions. The samples were assessed for mortality 6 days after placing seedlings into test solutions.

[5] = system: Diabrotica balteata (Corn Root Worm); assay: Example B2: Diabrotica balteata, sprayed maize sprouts, mortality and growth inhibition; type: in vivo; conditions: 96 h, application rate of 200 ppm, L2 larvae, 4 days after infestation, read-out: effect in at least one of the two categories (mortality or growth inhibition)
Method: as §3, with “mortality and growth inhibition in comparison to untreated samples” for “mortality”

[6] = system: Euschistus heros (Neotropical Brown Stink Bug); assay: Example B5: Euschistus heros, sprayed soybean leaves, mortality; type: in vivo; conditions: 120 h, application rate of 200 ppm, N2 nymphs, 5 days after infestation
Method: Soybean leaves on agar in 24-well microtiter plates were sprayed with aqueous test solutions prepared from 10,000 ppm DMSO stock solutions. After drying the leaves were infested with N2 nymphs. The samples were assessed for mortality 5 days after infestation.

[7] = system: Plutella xylostella (Diamond Back Moth); assay: Example B13: Plutella xylostella, treated artificial diet, mortality and growth inhibition; type: in vivo; conditions: 120 h, application rate of 200 ppm, L2 larvae, 5 days after infestation, read-out: effect in at least one of the two categories (mortality or growth inhibition)
Method: as §2, with “for mortality and” for “for”, “infestation.” for “infestation. Control of Plutella xylostella by a test sample is given when the growth inhibition is higher than the untreated sample.”

[8] = system: Spodoptera littoralis (Egyptian Cotton Leaf Worm); assay: Example B20: Spodoptera littoralis, compound in agar absorbed by lettuce roots, mortality; type: in vivo; conditions: 144 h, test rate of 12.5 ppm, uptake by lettuce roots, Spodoptera eggs, 6 days after infestation
Excerpt: Test compounds were applied by pipette prepared from 10,000 ppm DMSO stock solutions into 24-well plates and mixed with agar. Lettuce seeds were placed onto the agar and the multi well plate was closed by another plate which contained also agar. After 7 days the compound was absorbed by the roots and the lettuce grew into the lid plate. The lettuce leaves were then cut off into the lid plate.
Spodoptera eggs were pipetted through a plastic stencil onto a humid gel blotting paper and the lid plate was closed with it. The samples were assessed for mortality 6 days after infestation.

[9] = system: Spodoptera littoralis (Egyptian Cotton Leaf Worm); assay: Example B17: Spodoptera littoralis, sprayed cotton leaf discs, mortality, anti-feeding effect and growth inhibition; type: in vivo; conditions: foliar, 72 h, application rate of 200 ppm, L1 larvae, 3 days after infestation, read-out: control (at least one of mortality, anti-feedant effect, growth inhibition)
Method: (§4) Cotton leaf discs were placed onto agar in 24-well microtiter plates and sprayed with aqueous test solutions prepared from 10,000 ppm DMSO stock solutions. After drying the leaf discs were infested with five L1 larvae. The samples were assessed for mortality, anti-feeding effect, and growth inhibition in comparison to untreated samples 3 days after infestation. Control of Spodoptera littoralis by a test sample is given when at least one of the categories mortality, anti-feedant effect, and growth inhibition is higher than the untreated sample.

[10] = system: Myzus persicae (Green Peach Aphid); assay: Example B8: Myzus persicae, sprayed sunflower leaf discs, mortality; type: in vivo; conditions: foliar, 144 h, application rate of 200 ppm, leaf disc spray, aphid population of mixed ages, 6 days after infestation
Method: Sunflower leaf discs were placed onto agar in a 24-well microtiter plate and sprayed with aqueous test solutions prepared from 10,000 ppm DMSO stock solutions. After drying, the leaf discs were infested with an aphid population of mixed ages. The samples were assessed for mortality 6 days after infestation.

[11] = system: Plutella xylostella (Diamond Back Moth); assay: Example B12: Plutella xylostella, treated artificial diet, mortality; type: in vivo; conditions: 120 h, application rate of 200 ppm, L2 larvae, 5 days after infestation
Method: 24-well microtiter plates with artificial diet were treated with aqueous test solutions prepared from 10,000 ppm DMSO stock solutions by pipetting. After drying, the plates were infested with L2 larvae (10 to 15 per well). The samples were assessed for mortality 5 days after infestation.

[12] = system: Aedes aegypti (Yellow Fever Mosquito); assay: Example B23: Aedes aegypti, dry deposits in 12 well tissue culture plates, control; type: in vivo; conditions: application rate of 200 ppm in ethanol, adult females, after 48 h and/or 24 h
Method: Test solutions, at an application rate of 200 ppm in ethanol, were applied to 12 well tissue culture plates. Once the deposits were dry, five, two to five day old adult female Aedes aegypti were added to each well, and sustained with a 10% sucrose solution in a cotton wool plug. Assessment of knockdown was made one hour after introduction, and mortality was assessed at 24 and 48 hours after introduction.

[13] = system: Tetranychus urticae (Two-Spotted Spider Mite); assay: Example B21: Tetranychus urticae, sprayed bean leaf discs, mortality; type: in vivo; conditions: foliar, 192 h, application rate of 200 ppm, mixed population (mobile stages), 8 days after infestation
Method: Bean leaf discs on agar in 24-well microtiter plates were sprayed with aqueous test solutions prepared from 10,000 ppm DMSO stock solutions. After drying the leaf discs were infested with a mite population of mixed ages. The samples were assessed for mortality on mixed population (mobile stages) 8 days after infestation.

[14] = system: Spodoptera littoralis (Egyptian Cotton Leaf Worm); assay: Example B14: Spodoptera littoralis, sprayed cotton leaf discs, anti-feeding effect; type: in vivo; conditions: foliar, 72 h, application rate of 200 ppm, L1 larvae, 3 days after infestation
Method: as §4, with “for” for “for mortality,”, “effect” for “effect, and growth inhibition”, “when” for “when at least one of”, “the” for “the categories mortality,”

[15] = system: Spodoptera littoralis (Egyptian Cotton Leaf Worm); assay: Example B16: Spodoptera littoralis, sprayed cotton leaf discs, mortality; type: in vivo; conditions: foliar, 72 h, application rate of 200 ppm, L1 larvae, 3 days after infestation
Method: Cotton leaf discs were placed onto agar in 24-well microtiter plates and sprayed with aqueous test solutions prepared from 10,000 ppm DMSO stock solutions. After drying the leaf discs were infested with five L1 larvae. The samples were assessed for mortality 3 days after infestation.

[16] = system: Spodoptera littoralis (Egyptian Cotton Leaf Worm); assay: Example B19: Spodoptera littoralis, compound in agar absorbed by lettuce roots, anti-feedant effect; type: in vivo; conditions: 144 h, test rate of 12.5 ppm, uptake by lettuce roots, Spodoptera eggs, 6 days after infestation, read-out: anti-feeding
Excerpt: (§5) Test compounds were applied by pipette prepared from 10,000 ppm DMSO stock solutions into 24-well plates and mixed with agar. Lettuce seeds were placed onto the agar and the multi well plate was closed by another plate which contained also agar. After 7 days the compound was absorbed by the roots and the lettuce grew into the lid plate. The lettuce leaves were then cut off into the lid plate. Spodoptera eggs were pipetted through a plastic stencil onto a humid gel blotting paper and the lid plate was closed with it. The samples were assessed for anti-feedant effect in comparison to untreated samples 6 days after infestation.

[17] = system: Spodoptera littoralis (Egyptian Cotton Leaf Worm); assay: Example B18: Spodoptera littoralis, compound in agar absorbed by lettuce roots, mortality, anti-feedant effect and growth inhibition; type: in vivo; conditions: 144 h, test rate of 12.5 ppm, uptake by lettuce roots, Spodoptera eggs, 6 days after infestation, read-out: effect in at least one of the three categories (mortality, anti-feeding, or growth inhibition)
Excerpt: as §5, with “pipette” for “pipette prepared”, “for mortality,” for “for”, “effect and growth inhibition” for “effect”

[18] = system: Euschistus heros (Neotropical Brown Stink Bug); assay: Example B4: Euschistus heros, sprayed soybean leaves, growth inhibition; type: in vivo; conditions: 120 h, application rate of 200 ppm, N2 nymphs, 5 days after infestation
Method: as §1, with “for” for “for mortality and”, “infestation. Control of Euschistus heros by a test sample is given when the growth inhibition is higher than the untreated sample.” for “infestation.”

[19] = system: Spodoptera littoralis (Egyptian Cotton Leaf Worm); assay: Example B15: Spodoptera littoralis, sprayed cotton leaf discs, growth inhibition; type: in vivo; conditions: foliar, 72 h, application rate of 200 ppm, L1 larvae, 3 days after infestation, read-out: control (growth inhibition)
Method: as §4, with “for” for “for mortality, anti-feeding effect, and”, “when” for “when at least one of”, “the” for “the categories mortality, anti-feedant effect, and”

[20] = system: Frankliniella occidentalis (Western Flower Thrips); assay: Example B7: Frankliniella occidentalis, sprayed sunflower leaf discs, mortality; type: in vivo; conditions: foliar, 168 h, application rate of 200 ppm, population of mixed ages, 7 days after infestation
Method: Sunflower leaf discs were placed on agar in 24-well microtiter plates and sprayed with aqueous test solutions prepared from 10,000 DMSO stock solutions. After drying the leaf discs were infested with a Frankliniella population of mixed ages. The samples were assessed for mortality 7 days after infestation.

| SMILES | percent effect (mortality or growth inhibition) at 200 ppm [1] [%] | inhibition at 200 ppm [2] [%] | mortality at 200 ppm [3] [%] | percent effect (mortality or growth inhibition) at 200 ppm [5] [%] | mortality at 200 ppm [6] [%] | percent effect (mortality or growth inhibition) at 200 ppm [7] [%] | mortality at 12.5 ppm [8] [%] | percent control (mortality, anti-feedant effect or growth inhibition) at 200 ppm [9] [%] | mortality at 200 ppm [10] [%] | mortality at 200 ppm [11] [%] | pest or weed control at 200 ppm [14] [%] | mortality at 200 ppm [15] [%] | pest or weed control at 12.5 ppm [16] [%] | percent effect (mortality, anti-feeding or growth inhibition) at 12.5 ppm [17] [%] | inhibition at 200 ppm [18] [%] | other results |
| --- | --- | --- | --- | --- | --- | --- | --- | --- | --- | --- | --- | --- | --- | --- | --- | --- |
| CCS(=O)(=O)c1cc(CC#N)cnc1-c1cn2cnc(C(F)(F)F)cc2n1 [Compound P30, 2-[5-ethylsulfonyl-6-[7-(trifluoromethyl)imidazo[1,2-c]pyrimidin-2-yl]-3-pyridyl]acetonitrile] | ≥ 80 | ≥ 80 | ≥ 80 | ≥ 80 | ≥ 80 | ≥ 80 | – | – | – | – | – | – | – | – | – | mortality at 24 ppm [4]: ≥ 80% |
| C=Cc1cnc(-c2cn3cnc(C(F)(F)F)cc3n2)c(S(=O)(=O)CC)c1 [Example H6, 2-(3-ethylsulfonyl-5-vinyl-2-pyridyl)-7-(trifluoromethyl)imidazo[1,2-c]pyrimidine] | – | – | – | – | – | – | – | – | – | – | – | – | – | – | – | melting point: 174 to 176 °C |
| CCS(=O)(=O)c1cc(-c2cc(F)cc(F)c2)cnc1-c1cn2cnc(C(F)(F)F)cc2n1 [Compound P14] | ≥ 80 | ≥ 80 | ≥ 80 | ≥ 80 | ≥ 80 | ≥ 80 | ≥ 80 | ≥ 80 | ≥ 80 | ≥ 80 | ≥ 80 | ≥ 80 | ≥ 80 | ≥ 80 | – | pest or weed control at 200 ppm [12]: ≥ 80%; mortality at 200 ppm [13]: ≥ 80% |
| CCS(=O)(=O)c1cc(C2(C#N)CC2)cnc1-c1cn2cnc(C(F)(F)F)cc2n1 [Compound P8, 1-[5-ethylsulfonyl-6-[7-(trifluoromethyl)imidazo[1,2-c]pyrimidin-2-yl]-3-pyridyl]cyclopropanecarbonitrile] | ≥ 80 | ≥ 80 | ≥ 80 | ≥ 80 | ≥ 80 | ≥ 80 | – | ≥ 80 | ≥ 80 | ≥ 80 | ≥ 80 | ≥ 80 | – | – | ≥ 80 | inhibition at 200 ppm [19]: ≥ 80% |
| CCS(=O)(=O)c1cc(-c2ccc(Cl)cc2)cnc1-c1cn2cnc(C(F)(F)F)cc2n1 [Compound P5, 2-[5-(4-chlorophenyl)-3-ethylsulfonyl-2-pyridyl]-7-(trifluoromethyl)imidazo [1,2-c]pyrimidine] | ≥ 80 | – | ≥ 80 | ≥ 80 | ≥ 80 | ≥ 80 | ≥ 80 | ≥ 80 | – | ≥ 80 | ≥ 80 | ≥ 80 | ≥ 80 | ≥ 80 | ≥ 80 | mortality at 200 ppm [20]: ≥ 80% |
